Legend:
Format in all cases: cell-based
[1] = Effect on proliferation of cells, Cell Titer-Glo, 72 hours; conditions: Mus musculus, BaF3 cells
Protocol: The compounds of the present invention were tested for their effect on growth of cancer cells (Table 2), to further evaluate the compounds herein for their inhibitory effect on proliferation of cancer cells and their selectivity in inhibiting proliferation of cancer cells. […]
In the example, solutions of the test compound in DMSO at different concentrations (0.000508 μM, 0.00152 μM, 0.00457 μM, 0.0137 μM, 0.0411 μM, 0.123 μM, 0.370 μM, 1.11 μM, 3.33 μM, 10 μM) was added to the above cells respectively. The cells were incubated for 72 hours. The number of viable cells was detected with a Cell Titer-Glo (Promega, USA) Cell Viability Assay Kit by quantifying the ATP in viable cells. The values of GI50 (unit) of the compounds of the present invention against each of the test cells were determined.

[2] = tested on: melanoma cell A375 (expressing BRAF-V600E mutant kinase); test: Effect on proliferation of cancer cells, Cell Titer-Glo, 72 hours; conditions: Homo sapiens, A-375
Protocol: (§1) The compounds of the present invention were tested for their effect on growth of cancer cells (Table 2), to further evaluate the compounds herein for their inhibitory effect on proliferation of cancer cells and their selectivity in inhibiting proliferation of cancer cells.
(§2) The cells were incubated for 72 hours. The number of viable cells was detected with a Cell Titer-Glo (Promega, USA) Cell Viability Assay Kit by quantifying the ATP in viable cells. The values of GI50 (unit) of the compounds of the present invention against each of the test cells were determined.

[3] = tested on: colorectal cancer cell COLO205 (expressing BRAF-V600E mutant kinase); test: as above; conditions: Homo sapiens, COLO 205
Protocol: as §1, §2

[4] = tested on: mouse BaF3-FL-BRAF-V600E (stably expressing full-length BRAF-V600E mutant kinase); test: as above
Protocol: as §1, §2

SMILES | GI50 [2] [nM] | GI50 [3] [nM] | GI50 [4] [nM] | GI50 [1] [nM]
Cc1ccc(NC(=O)c2cccc(C(C)(C)C#N)c2)cc1-n1cc(-c2cncc(-c3cccnc3)c2)cn1 [Example 3, N-(3-(4-([3,3′-bipyridyl]-5-yl)-1H-pyrazol-1-yl)-4-methylphenyl)-3-(2-cyanoprop-2-yl)benzamide] | 21 | 10 | < 0.3 | 1000
Cc1ccc(NC(=O)c2cccc(C(C)(C)C#N)c2)cc1-n1cc(-c2cncc(-c3ccncc3)c2)cn1 [Example 5, N-(3-(4-([3,4′-bipyridyl]-5-yl)-1H-pyrazol-1-yl)-4-methylphenyl)-3-(2-cyanoprop-2-yl)benzamide] | 19 | 17 | 1.9 | 510
Cc1ccc(NC(=O)c2cccc(C(F)(F)F)c2)cc1-n1cc(-c2cncc(-c3ccncc3)c2)cn1 [Example 13, N-(3-(4-([3,4′-bipyridyl]-5-yl)-1H-pyrazol-1-yl)-4-methylphenyl)-3-(trifluoromethyl)benzamide] | 81 | 62 |  | 1300
Cc1cn(-c2cc(C(=O)Nc3ccc(C)c(-n4cc(-c5cnc6[nH]ccc6c5)cn4)c3)cc(C(F)(F)F)c2)cn1 [Example 167, N-(3-(4-(1H-pyrrolo[2,3-b]pyrid-5-yl)-1H-pyrazol-1-yl)-4-methylphenyl)-3-(4-methyl-1H-imidazol-1-yl)-5-(trifluoromethyl)benzamide] | 330 | 670 |  | 3900
Cc1ccc(NC(=O)c2ccc(CN3CCN(C)CC3)c(C(F)(F)F)c2)cc1-n1cc(-c2cnc3[nH]ccc3c2)cn1 [Example 168, N-(3-(4-(1H-pyrrolo[2,3-b]pyrid-5-yl)-1H-pyrazol-1-yl)-4-methylphenyl)-4-((4-methylpiperazin-1-yl)methyl)-3-(trifluoromethyl)benzamide] | 46 | 28 |  | 3300
Cc1ccc(NC(=O)c2cccc(C(C)(C)C#N)c2)cc1-n1cc(-c2cnc3[nH]ccc3c2)cn1 [Example 171, N-(3-(4-(1H-pyrrolo[2,3-b]pyrid-5-yl)-1H-pyrazol-1-yl)-4-methylphenyl)-3-(2-cyanoprop-2-yl)benzamide] | 110 | 360 |  | 2600
Cc1ccc(NC(=O)c2ccc(CN3CCN(C)CC3)c(C(F)(F)F)c2)cc1-n1cnc(-c2cnc3[nH]ccc3c2)c1 [Example 174, N-(3-(4-(1H-pyrrolo[2,3-b]pyrid-5-yl)-1H-imidazol-1-yl)-4-methylphenyl)-4-((4-methylpiperazin-1-yl)methyl)-3-(trifluoromethyl)benzamide] | 160 | 110 |  | 960
Cc1ccc(NC(=O)c2ccc(C)c(C(F)(F)F)c2)cc1-n1cnc(-c2cnc3[nH]ccc3c2)c1 [Example 175, N-(3-(4-(1H-pyrrolo[2,3-b]pyrid-5-yl)-1H-imidazol-1-yl)-4-methylphenyl)-4-methyl-3-(trifluoromethyl)benzamide] | 100 | 150 |  | 1600
Cc1ccc(NC(=O)c2cccc(C(C)(C)C#N)c2)cc1-n1cnc(-c2cnc3[nH]ccc3c2)c1 [Example 176, N-(3-(4-(1H-pyrrolo[2,3-b]pyrid-5-yl)-1H-imidazol-1-yl)-4-methylphenyl)-3-(2-cyanoprop-2-yl)benzamide] | 89 | 130 |  | 920
Cc1ccc(NC(=O)c2cccc(C(F)(F)F)c2)cc1-n1cnc(-c2cnc3[nH]ccc3c2)c1 [Example 177, N-(3-(4-(1H-pyrrolo[2,3-b]pyrid-5-yl)-1H-imidazol-1-yl)-4-methylphenyl)-3-(trifluoromethyl)benzamide] | 120 | 65 |  | 2700
Cc1ccc(NC(=O)c2cc(C(C)(C)C)on2)cc1-n1cnc(-c2cnc3[nH]ccc3c2)c1 [Example 178, N-(3-(4-(1H-pyrrolo[2,3-b]pyrid-5-yl)-1H-imidazol-1-yl)-4-methylphenyl)-5-(tert-butyl)isoxazole-3-carboxamide] | 140 | 300 |  | 3700
Cc1ccc(NC(=O)c2ccc3cccnc3c2)cc1-n1cc(-c2cnc3[nH]ccc3c2)cn1 [Example 182, N-(3-(4-(1H-pyrrolo[2,3-b]pyrid-5-yl)-1H-pyrazol-1-yl)-4-methylphenyl)quinoline-7-carboxamide] | 500 | 400 |  | 2000

More lines, main results first:

GI50 [2] [nM] | GI50 [3] [nM] | GI50 [4] [nM] | SMILES | GI50 [1] [nM]
36 | 48 |  | Cc1ccc(NC(=O)c2cccc(C(F)(F)F)c2)cc1-n1cc(-c2cncc(-c3cccnc3)c2)cn1 [Example 2, N-(3-(4-([3,3′-bipyridyl]-5-yl)-1H-pyrazol-1-yl)-4-methylphenyl)-3-(trifluoromethyl)benzamide] | 1700
57 | 53 | 7.5 | Cc1ccc(NC(=O)c2cccc(C(C)C#N)c2)cc1-n1cc(-c2cncc(-c3ccncc3)c2)cn1 (centres unmarked) [Example 6, N-(3-(4-([3,4′-bipyridyl]-5-yl)-1H-pyrazol-1-yl)-4-methylphenyl)-3-(1-cyanoethyl)benzamide] | 780
47 | 52 | 10 | Cc1ccc(NC(=O)c2cccc(C(C)(C)C#N)c2)cc1-n1cc(-c2cncc(-c3ccc(N4CCN(C)CC4)cc3)c2)cn1 [Example 30, N-(4-methyl-3-(4-(5-(4-(4-methylpiperazin-1-yl)phenyl)pyrid-3-yl)-1H-pyrazol-1-yl)phenyl)-3-(2-cyanoprop-2-yl)benzamide] | 
100 | 98 |  | Cc1ccc(NC(=O)c2cccc(C(F)(F)F)c2)cc1-n1cc(-c2cncc(-c3ccc(N4CCN(C)CC4)cc3)c2)cn1 [Example 31, N-(4-methyl-3-(4-(5-(4-(4-methylpiperazin-1-yl)phenyl)pyrid-3-yl)-1H-pyrazol-1-yl)phenyl)-3-(trifluoromethyl)benzamide] | 
60 | 110 |  | Cc1ccc(NC(=O)c2cccc(C(C)(C)C#N)c2)cc1-n1cnc(-c2cncc(N3CCOCC3)c2)c1 [Example 109, 3-(2-cyanoprop-2-yl)-N-(4-methyl-3-(4-(5-morpholinopyrid-3-yl)-1H-imidazol-1-yl)phenyl)benzamide] | 3800
270 | 280 |  | Cc1ccc(NC(=O)c2cccc(C(F)(F)F)c2)cc1-n1cc(-c2cnc3[nH]ccc3c2)cn1 [Example 170, N-(3-(4-(1H-pyrrolo[2,3-b]pyrid-5-yl)-1H-pyrazol-1-yl)-4-methylphenyl)-3-(trifluoromethyl)benzamide] | 4800
250 | 140 |  | Cc1ccc(NC(=O)c2cccc(C(C)C#N)c2)cc1-n1cc(-c2cnc3[nH]ccc3c2)cn1 (centres unmarked) [Example 179, N-(3-(4-(1H-pyrrolo[2,3-b]pyrid-5-yl)-1H-pyrazol-1-yl)-4-methylphenyl)-3-(1-cyanoethyl)benzamide] | 3600
300 | 150 |  | Cc1ccc(NC(=O)c2cccc(-c3ccsc3)c2)cc1-n1cc(-c2cnc3[nH]ccc3c2)cn1 [Example 183, N-(3-(4-(1H-pyrrolo[2,3-b]pyrid-5-yl)-1H-pyrazol-1-yl)-4-methylphenyl)-3-(thien-3-yl)benzamide] | 3400
